Data from PMC3840712, “Enzymatic properties of Thermoanaerobacterium thermosaccharolyticum β-glucosidase fused to Clostridium cellulovorans cellulose binding domain and its application in hydrolysis of microcrystalline cellulose” (BMC Biotechnology, 2013).

Assays:
BGL-CBD [1] = tested on: T1, BGL-CBD; test: initial rates, cellobiose hydrolysis; type: biochemical, Thermoanaerobacterium thermosaccharolyticum; conditions: 50 mM citrate pH 6.0, 65°C
T1 construct: one polypeptide: BGL - PPP linker - C. cellulovorans CBD, pET-20b (NdeI/BamHI/XhoI; pET-BGL-Linker-CBD), Ni-NTA purified, E. coli JM109(DE3), about 69 kDa
Excerpt: initial rates, cellobiose hydrolysis on BGL-CBD

BGL [2] = biological target: T2, BGL (Thermoanaerobacterium thermosaccharolyticum, UniProt D9TR57); test: initial rates, cellobiose hydrolysis; type: biochemical; conditions: 50 mM citrate pH 6.0, 65°C
T2 construct: gene Tthe_1813
T2 sequence (D9TR57 1-444): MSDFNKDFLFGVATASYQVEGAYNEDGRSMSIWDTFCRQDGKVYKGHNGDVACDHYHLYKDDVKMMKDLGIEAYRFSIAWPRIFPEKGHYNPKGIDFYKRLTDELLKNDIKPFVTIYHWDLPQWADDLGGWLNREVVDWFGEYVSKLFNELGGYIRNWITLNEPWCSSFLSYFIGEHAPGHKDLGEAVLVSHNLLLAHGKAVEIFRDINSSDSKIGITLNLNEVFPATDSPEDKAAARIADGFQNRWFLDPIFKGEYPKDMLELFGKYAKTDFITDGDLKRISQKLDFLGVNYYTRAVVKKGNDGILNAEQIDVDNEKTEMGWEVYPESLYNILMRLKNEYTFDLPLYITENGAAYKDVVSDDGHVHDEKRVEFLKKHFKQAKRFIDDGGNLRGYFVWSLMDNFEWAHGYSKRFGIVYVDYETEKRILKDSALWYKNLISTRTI

BGL [3] = biological target: T2, BGL; test: pNP release at […] nm, […] inhibition; type: biochemical; conditions: pNPG as substrate, 50 mM citrate pH 6.0, 65°C; K i defined as glucose giving 50% inhibition
BGL-CBD [4] = tested on: T1, BGL-CBD; test: initial rates, pNP release at […] nm; type: biochemical, Thermoanaerobacterium thermosaccharolyticum; conditions: 50 mM citrate pH 6.0, 65°C
BGL [5] = biological target: T2, BGL; test: initial rates, pNP release at […] nm; type: biochemical; conditions: 50 mM citrate pH 6.0, 65°C

## OC[C@H]1O[C@@H](O[C@H]2[C@H](O)[C@@H](O)C(O)O[C@@H]2CO)[C@H](O)[C@@H](O)[C@@H]1O (some centres unmarked) [cellobiose]
BGL-CBD [1]
  Km: 2620 µM
BGL [2]
  Km: 7900 µM

## OC[C@H]1OC(O)[C@H](O)[C@@H](O)[C@@H]1O (some centres unmarked) [glucose]
BGL [3]
  K i: The BGL-CBD yielded approximately two times higher K i values for glucose than the BGL

## O=[N+]([O-])c1ccc(O[C@@H]2O[C@H](CO)[C@@H](O)[C@H](O)[C@H]2O)cc1 [p-nitrophenyl-β-D-glucopyranoside]
BGL-CBD [4]
  Km: 250 µM
BGL [5]
  Km: 620 µM
